{"source": "patent US20070112018A1", "about": "“Treatment of peripheral arterial occlusive disease” (priority 2005, published 2007)", "key": {"[1]": {"assay": "Tissue distribution in rats after a single oral dose (Study 6510-109)", "format": "in vivo, rat", "settings": "for Kp: oral, 3 mg/kg, species not given", "method": "Distribution to the majority of tissues was higher than observed plasma levels.\nIn rats and dogs, the Vdβ/F following oral administration was 40-80 L/kg. […] The highest mean Cmax observed was in the wall of the GI tract and occurred approximately 1 hour post-dose. […] A large tissue compartment of rifalazil is considered important for efficacy against Chlamydia given the intracellular nature of Chlamydia infection."}, "Chlamydia": {"test_system": "Chlamydia", "assay": "Phase 2 study in men with non-gonococcal urethritis, eradication of Chlamydia", "format": "in vivo, human", "from_the_text": "The use of rifalazil in the treatment of PAOD is supported by both preclinical and clinical lines of evidence.\nDue to the recalcitrant response of C. pneumoniae to antibiotic therapy, the duration of therapy is thought to be an important parameter for optimizing treatment. Previous large well-controlled randomized studies have tested long term antibiotic therapy in the CHD population. A longer term treatment schedule with rifalazil than was utilized in eradicating C. trachomatis in NGU (single dose) may represent a preferred therapeutic regimen for producing a clinically beneficial effect on C. pneumoniae in patients with PAOD. Further, dosing of PAOD patients with rifalazil for a duration of 8 weeks may further optimize therapeutic effect against C. pneumoniae in these patients. Chlamydia pneumoniae infects the vasculature, and to elicit significant antibacterial activity against this pathogen, longer courses of treatment than those directed at C. trachomatis (i.e., single dose) are preferred. Pharmacokinetic and pharmacodynamic modeling predict that this dosage will provide continuous plasma and tissue concentrations of rifalazil above the MIC90 for C. pneumoniae for over 9 weeks. A single dose of 25 mg rifalazil administered once per week for up to 4 weeks was not associated with significant adverse effects in Phase 1 studies. […]"}, "[2]": {"settings": "human, in vivo"}, "[3]": {"assay": "Single 25-mg dose under three food conditions in healthy male adults, adverse events", "format": "in vivo, human", "method": "In another study, a single 25-mg oral dose of rifalazil was administered to healthy male adults under one of three distinct food conditions: a high fat meal (60% fat), standard meal (30% fat), and under fasting conditions. No placebo-control was used in this study. Twelve subjects were enrolled, 10 of whom received all doses of rifalazil. Although high fat meal conditions result in higher plasma levels of rifalazil, the incidence of AEs was similar across all food conditions. A total of 83% of subjects (10/12) experienced treatment-emergent AEs, all of mild to moderate intensity. Fifty-eight percent were considered by the investigator to be drug-related. The most common reported drug-related AEs were back pain (25%) and headache (17%), and these were reported only in subjects under fed conditions. All other study medication-related AEs were reported by one subject (8%) only."}, "C. pneumoniae": {"test_system": "C. pneumoniae", "assay": "Rabbit model of atherosclerosis accelerated by C. pneumoniae infection, cholesterol diet", "settings": "C. pneumoniae-infected rabbits; rifalazil 5 mg/kg or azithromycin 30 mg/kg PO daily 1 week then twice weekly 6 weeks; 19 weeks after beginning treatment", "description": "Thirty received three separate C. pneumoniae inoculations performed at 3-week intervals. Similarly, 15 control rabbits were intranasally inoculated with 1 mL of normal saline under the same conditions.\nNineteen weeks after beginning antibiotic treatment, the rabbits were euthanized. After euthanasia, hearts were examined histologically and by immunofluorescence. Animal serum samples were also examined for seropositivity to the infecting organism."}, "[4]": {"assay": "Phase 1 pharmacokinetic analyses by gender, single or multiple doses 2.5-50 mg", "format": "in vivo, human", "method": "There were no significant differences between males and females for AUC0-∞ when data were normalized to 1 mg/kg following single doses of 2.5 to 50 mg rifalazil (see FIG. 3 and FIG. 4).\nThe Vdβ/F was large indicating extensive distribution in the body. […] The mean minimum plasma concentrations (Cmin) of rifalazil over time during 5 days of dosing with 2.5 and 5 mg rifalazil increased from Days 2-6 in both males and females at both dose levels."}, "[5]": {"assay": "25 mg cumulative doses over one week, adverse events by regimen", "format": "in vivo, human", "method": "Different dosing regimens of rifalazil that achieve 25-mg cumulative doses in 1 week also provide relevant clinical information on the safety of 25 mg administered as a single dose once per week.\nFor a cumulative dose of 25 mg, the overall incidence of AEs was somewhat lower when rifalazil was administered as 5 mg QD for 5 days, compared with a single dose of 25 mg (75%). Similarly, the overall incidence of drug-related AEs was lower when 25 mg was administered as a 5 mg for 5 days (63%), vs. 12.5 mg as 2 doses (separated by 72 hours) (70%), and as a single dose of 25 mg (75%)."}, "[6]": {"assay": "Phase 1 single-dose study (2.5, 5, 12.5, 25 mg), adverse events", "format": "in vivo, human", "method": "Several Phase 1 studies of rifalazil administration have been carried out using 25 mg single doses. In one such study, sixteen patients received single doses of 25 mg. Overall, 75% of patients (12/16) reported treatment-emergent adverse events (AEs). […] However, for all dose groups, the incidence of AEs was higher for females than for males, and this difference was also observed in the placebo group. At 25 mg, […] of females (31/39) and 55% of males (16/29) reported treatment-emergent AEs. The AEs with an incidence greater than or equal to 10% were: […]"}, "[7]": {"assay": "Non-clinical oral pharmacokinetics, all species evaluated", "format": "in vivo", "settings": "oral administration", "method": "Since the PK profile of rifalazil has been studied in man, only a brief summary of the non-clinical PK is provided. Overall, the absorption, distribution, metabolism, and elimination of rifalazil observed in the animals studied are similar to those observed in man.\nPeak plasma concentrations were observed from 4 to 18 hours after oral administration."}}, "note": "Where two headings read alike, the source gives them in different places."}
{"smiles": "CO[C@H]1/C=C/O[C@@]2(C)Oc3c(C)c(O)c4c(=O)c(c5oc6cc(N7CCN(CC(C)C)CC7)cc(O)c6nc-5c4c3C2=O)NC(=O)/C(C)=C\\C=C\\[C@H](C)[C@H](O)[C@@H](C)[C@@H](O)[C@@H](C)[C@H](OC(C)=O)[C@@H]1C", "note": "[rifalazil, 3′-hydroxy-5′-(4-isobutyl-1-piperazinyl) benzoxazinorifamycin]", "values": [{"measurement": "Kp", "setting": "[1]; rat, liver, read-out: tissue to plasma ratio (AUC), liver", "result": 33.7}, {"measurement": "Kp", "setting": "[1]; rat, testes, read-out: tissue to plasma ratio (AUC), testes", "result": 4.9}, {"measurement": "concentration at 1 h", "setting": "[1]; rat, wall of the GI tract, rats, single oral 3 mg/kg, at 1 hour", "result": 5400, "unit": "ng/g"}, {"measurement": "tissue concentration, spleen", "setting": "[1]; rats, single oral 3 mg/kg, at 8-12 hours post dose", "result": "5.1-9.3 μg/gm"}, {"measurement": "anti-chlamydial activity in patients with NGU", "setting": "Chlamydia; oral 25 mg", "result": "significant anti-chlamydial activity"}, {"measurement": "patients in whom Chlamydia was eradicated", "setting": "Chlamydia; single oral dose", "result": "> 86", "unit": "%"}, {"measurement": "overall extent of metabolism", "setting": "[2]", "result": "less than 3 % of the administered dose"}, {"measurement": "AEs considered by the investigator to be drug-related", "setting": "[3]", "result": "Fifty-eight"}, {"measurement": "all other study medication-related AEs (each, one subject)", "setting": "[3]", "result": 8, "unit": "%"}, {"measurement": "subjects experiencing treatment-emergent AEs", "setting": "[3]; all food conditions (10/12)", "result": 83, "unit": "%"}, {"measurement": "drug-related back pain", "setting": "[3]; only under fed conditions", "result": 25, "unit": "%"}, {"measurement": "drug-related headache", "setting": "[3]; only under fed conditions", "result": 17, "unit": "%"}, {"measurement": "Plaque Area Stenosis (%)", "setting": "C. pneumoniae", "result": 24.2, "unit": "%"}, {"measurement": "steady state", "setting": "[4]; after 5 days of dosing with 2.5 and 5 mg", "result": "does not appear that steady state was reached"}, {"measurement": "half-life", "setting": "[4]; both sexes, human, plasma, oral, following single doses, read-out: mean elimination t1/2", "result": "100 to 150", "unit": "h"}, {"measurement": "half-life", "setting": "[4]; both sexes, human, plasma, oral, multiple dosing, up to 5 days, read-out: mean elimination t1/2", "result": "87 to 174", "unit": "h"}, {"measurement": "half-life", "setting": "[4]; both sexes, human, plasma, oral, read-out: t1/2 (converted)", "result": "~100", "unit": "h"}, {"measurement": "Tmax", "setting": "[4]; both sexes, human, plasma, oral, single or multiple doses 2.5-50 mg, males and females, read-out: mean time to maximum concentration (Tmax)", "result": "4 to 6", "unit": "h"}, {"measurement": "Vdβ/F", "setting": "[4]; in vivo", "result": "large"}, {"measurement": "exposure (mean Cmax and AUC0-∞) as a function of dose", "setting": "[4]; males and females, 2.5 to 50 mg, increase not dose proportional", "result": "increased with rifalazil dose"}, {"measurement": "incidence of flu-like symptoms", "setting": "[5]; 5 mg QD for 5 days (5/15 patients)", "result": 33, "unit": "%"}, {"measurement": "overall incidence of drug-related AEs", "setting": "[5]; 5 mg for 5 days", "result": 63, "unit": "%"}, {"measurement": "overall incidence of drug-related AEs", "setting": "[5]; 12.5 mg as 2 doses separated by 72 hours", "result": 70, "unit": "%"}, {"measurement": "incidence of flu-like symptoms", "setting": "[5]; 12.5 mg×2 dose regimen", "result": 15, "unit": "%"}, {"measurement": "incidence of flu-like symptoms", "setting": "[5]; 25 mg single-dose (3/16 patients)", "result": 19, "unit": "%"}, {"measurement": "overall incidence of AEs", "setting": "[5]; single dose of 25 mg", "result": 75, "unit": "%"}, {"measurement": "overall incidence of drug-related AEs", "setting": "[5]; single dose of 25 mg", "result": 75, "unit": "%"}, {"measurement": "males reporting treatment-emergent AEs", "setting": "[6]; at 25 mg (16/29)", "result": 55, "unit": "%"}, {"measurement": "females reporting treatment-emergent AEs", "setting": "[6]; at 25 mg (31/39)", "result": 88, "unit": "%"}, {"measurement": "incidence of Bacteria in urine", "setting": "[6]; single dose 25 mg", "result": 19, "unit": "%"}, {"measurement": "incidence of Blood present in urine", "setting": "[6]; single dose 25 mg", "result": 13, "unit": "%"}, {"measurement": "incidence of Body temperature increased", "setting": "[6]; single dose 25 mg", "result": 25, "unit": "%"}, {"measurement": "incidence of Headache", "setting": "[6]; single dose 25 mg", "result": 38, "unit": "%"}, {"measurement": "incidence of Lymphocyte count decreased", "setting": "[6]; single dose 25 mg", "result": 31, "unit": "%"}, {"measurement": "incidence of Monocyte count increased", "setting": "[6]; single dose 25 mg", "result": 13, "unit": "%"}, {"measurement": "incidence of Nausea", "setting": "[6]; single dose 25 mg", "result": 13, "unit": "%"}, {"measurement": "incidence of Neutrophil count increased", "setting": "[6]; single dose 25 mg", "result": 13, "unit": "%"}, {"measurement": "incidence of Pharyngitis", "setting": "[6]; single dose 25 mg", "result": 13, "unit": "%"}, {"measurement": "incidence of White blood cells (WBCs) in urine", "setting": "[6]; single dose 25 mg", "result": 19, "unit": "%"}, {"measurement": "patients reporting treatment-emergent adverse events", "setting": "[6]; single dose 25 mg, 16 patients", "result": 75, "unit": "%"}, {"measurement": "Cmax and AUC as a function of dose", "setting": "[7]", "result": "dose-dependent but not dose-proportional"}]}
